In publication PMC9687798, “Atypical Substrates of the Organic Cation Transporter 1” (Biomolecules, 2022):

Columns and labels:
[1] = target: T1, OCT3 (Homo sapiens, UniProt O75751); experiment: Cellular uptake ratio, OCT3-overexpressing HEK293 cells vs empty vector; assay type: cell-based; conditions: based on ratio uptake data at 1 µM
T1 construct: expressed in transfected cells; host or cells: HEK293, stably transfected; gift from Dr. Koepsell and Dr. Gorbulev (University of Würzburg)
T1 sequence (O75751 1-556): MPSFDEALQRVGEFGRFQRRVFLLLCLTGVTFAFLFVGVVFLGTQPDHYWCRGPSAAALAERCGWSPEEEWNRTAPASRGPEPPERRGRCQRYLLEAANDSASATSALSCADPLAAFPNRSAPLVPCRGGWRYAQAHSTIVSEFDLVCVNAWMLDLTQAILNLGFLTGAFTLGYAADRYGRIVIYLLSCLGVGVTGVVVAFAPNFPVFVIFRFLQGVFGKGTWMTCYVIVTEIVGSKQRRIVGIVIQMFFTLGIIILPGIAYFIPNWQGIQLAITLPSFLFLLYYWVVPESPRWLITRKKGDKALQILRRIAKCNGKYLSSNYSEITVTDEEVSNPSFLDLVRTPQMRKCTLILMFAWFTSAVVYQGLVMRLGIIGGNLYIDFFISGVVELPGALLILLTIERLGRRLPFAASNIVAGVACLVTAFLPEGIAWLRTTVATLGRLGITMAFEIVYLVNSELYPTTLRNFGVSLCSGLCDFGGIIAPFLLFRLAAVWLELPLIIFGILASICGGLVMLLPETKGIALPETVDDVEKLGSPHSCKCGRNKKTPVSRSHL
Protocol: (§1) The wild-type cell lines of OCT1 and OCT2, as well as the variant cell lines OCT1*2 and *3, were generated using the Flp-In system (Thermo Fisher Scientific, Darmstadt, Germany) as described in previous publications. The cell line overexpressing OCT3 was a kind gift from Dr. Koepsell and Dr. Gorbulev (University of Würzburg, Germany). Cells transfected with the empty pcDNA5/FRT vector were used for the transport experiments as a control cell line. All cells were cultured approximately up to passage 30.
(§2) Forty-eight hours before the transport experiments, 600,000 cells were plated on 12-well plates pre-coated with poly-D-lysine and incubated at 37 °C with 5% CO2. The prepared 12-well plate with cells was positioned on a heating plate pre-warmed to 37 °C. After removing the medium, the cells were washed with 37 °C HBSS+ (10 mM HEPES in Hank’s balanced salt solution, pH 7.4). Then, one pre-defined concentration of a substrate was added to each well. The incubation period was stopped by adding 2 mL of 4 °C HBSS+ and removing the cells from the heating plate. The cells were washed twice with 4 °C HBSS+. For cell lysis, the cells were incubated for 15 min with 500 µL of 80% acetonitrile (LGC Standards, Wesel, Germany), which contained a respective internal standard (Table 1).
(§3) For concentration-dependent transport, the cells were incubated with defined substrate concentrations (0.1, 1, 10, 30, 100, 300, 600, 1000 µM) for the respective pre-defined incubation times. […] The uptake by a transporter was normalised to the uptake by empty vector-transfected cells. […] The results of transport experiments were normalized to the total protein concentration per well. Total protein quantification was performed using a bicinchoninic acid assay with bovine serum albumin as standard.
(§4) The ratios of cellular uptake were calculated by dividing the total uptake of transporter-overexpressing cells by the total uptake into empty vector transfected cells. The concentration-dependent cellular net uptake was used for analysis of transport kinetics by subtracting for each substrate concentration the uptake of empty vector-transfected cells from the uptake of transporter-overexpressing cells. […] The intrinsic clearance Clint was expressed with the ratio of Vmax and KM.

[2] = test system: hCMEC/D3; conditions: BBB-representing cell line hCMEC/D3; cited from earlier work
[3] = target: T2, human OCT1*1 (wild-type) (Homo sapiens, UniProt O15245); experiment: Concentration-dependent uptake (transport kinetics) in HEK293 cells overexpressing OCT1 wild-type
T2 sequence (O15245 1-554): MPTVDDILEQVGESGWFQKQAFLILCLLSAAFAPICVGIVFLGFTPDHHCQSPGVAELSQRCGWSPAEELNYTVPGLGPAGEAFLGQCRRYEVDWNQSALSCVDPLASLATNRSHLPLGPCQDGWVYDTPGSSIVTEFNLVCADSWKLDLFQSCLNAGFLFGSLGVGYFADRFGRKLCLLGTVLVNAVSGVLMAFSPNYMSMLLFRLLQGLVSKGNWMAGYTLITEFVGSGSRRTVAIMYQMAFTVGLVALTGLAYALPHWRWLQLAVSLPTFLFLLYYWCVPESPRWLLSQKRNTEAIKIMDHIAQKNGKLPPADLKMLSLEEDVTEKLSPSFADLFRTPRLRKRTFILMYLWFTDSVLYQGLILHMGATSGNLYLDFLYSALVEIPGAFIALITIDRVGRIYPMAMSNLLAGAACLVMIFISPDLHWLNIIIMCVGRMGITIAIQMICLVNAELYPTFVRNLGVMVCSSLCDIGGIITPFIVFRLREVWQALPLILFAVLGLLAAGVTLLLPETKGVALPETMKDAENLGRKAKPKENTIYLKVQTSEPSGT

[4] = target: T2, human OCT1*1 (wild-type); experiment: Cellular uptake ratio, OCT1-overexpressing HEK293 cells vs empty vector; assay type: cell-based; conditions: based on ratio uptake data at 1 µM
Protocol: as §1, §2, §3, §4

[5] = target: T3, wild-type human OCT2 (Homo sapiens, UniProt O15244); experiment: Cellular uptake ratio, OCT2-overexpressing HEK293 cells vs empty vector; assay type: cell-based; conditions: based on ratio uptake data at 1 µM
T3 sequence (O15244 1-555): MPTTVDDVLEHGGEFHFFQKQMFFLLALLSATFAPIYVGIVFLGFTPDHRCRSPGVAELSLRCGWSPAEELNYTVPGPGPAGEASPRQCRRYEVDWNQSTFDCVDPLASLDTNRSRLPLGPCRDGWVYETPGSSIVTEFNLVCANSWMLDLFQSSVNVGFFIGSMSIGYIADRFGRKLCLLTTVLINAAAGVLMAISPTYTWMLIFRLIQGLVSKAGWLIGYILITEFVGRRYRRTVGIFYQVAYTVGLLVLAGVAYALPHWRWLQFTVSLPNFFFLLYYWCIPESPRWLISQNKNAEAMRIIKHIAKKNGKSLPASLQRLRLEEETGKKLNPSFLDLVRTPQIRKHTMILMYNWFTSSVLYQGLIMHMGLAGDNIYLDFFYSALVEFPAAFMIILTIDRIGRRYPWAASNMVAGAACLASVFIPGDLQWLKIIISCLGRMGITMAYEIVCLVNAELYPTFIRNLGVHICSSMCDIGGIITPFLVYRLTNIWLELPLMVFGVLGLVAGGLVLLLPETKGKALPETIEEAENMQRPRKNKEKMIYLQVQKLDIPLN
Protocol: as §1, §2, §3, §4

[6] = target: OCT1 (wild-type, OCT1*1) (Homo sapiens, UniProt O15245); experiment: Concentration-dependent uptake (transport kinetics) in HEK293 cells overexpressing OCT1 wild-type; conditions: human, HEK293 cells stably overexpressing human OCT1*1 (wild-type), pH 7.4, KM (±SEM), net uptake (OCT1 minus empty vector), HEK293, 0.1-1000 µM substrate, Michaelis–Menten

| Clint (±SEM) ([3]; intrinsic clearance = ratio of Vmax and KM, OCT1 wild-type) | Km [6] | Vmax (±SEM) ([3]; net uptake (OCT1 minus empty vector), HEK293, 0.1-1000 µM substrate, Michaelis–Menten) | Structure (SMILES) | OCT3 transport category [1] | Km [2] | OCT1 transport category [4] | OCT2 transport category [5] |
| --- | --- | --- | --- | --- | --- | --- | --- |
| 2.77 ± 5.66 µL/mg Protein/min |  |  | Nc1nnc(-c2cccc(Cl)c2Cl)c(N)n1 [Lamotrigine, lamotrigine] | +/− (poor transport with a Clint < 5 or ratio between 1–2 with statistical significance (p < 0.05)) | 62 µM |  |  |
|  | 54.5 ± 7.2 µM | 1047 ± 123 pmol/mg Protein/min | CNC(=C[N+](=O)[O-])NCCSCc1ccc(CN(C)C)o1 [Ranitidin, ranitidine] | 0 (no transport by OCT1, OCT2, and OCT3 occurred (i.e., no kinetic parameters or uptake ratio <2 without significance)) |  | ++ (very good substrates of OCTs that have an intrinsic clearance >15 or show an uptake ratio >10) | + (good substrates of OCTs when the intrinsic clearance is between 5–15 or the ratio is 2–10) |
